Experimental data: patent publication US4092350A, “Alkanoic acid, process for its production and method of use thereof” (priority 1975, dated 1978)
Where two headings read alike, the source gives them in different places.

Assays:
[1] = system: Carrageenin-Induced Paw Edema; assay: Inhibition of Carrageenin-Induced Paw Edema; type: in vivo, male Donryu rats; details: Rattus norvegicus, rats, oral; for ED40: 3 h
Protocol: (§1) (a) Inhibition of Carrageenin-Induced Paw Edema
(§2) Following the method of C. […] The volume of the paw was measured before and 3 hours after the carrageenin injection. The swelling index of the inflamed paw was calculated as follows. [formula]
(§3) Inhibitory percentage was calculated as follows. [formula] (b) Inhibition of Intraperitoneal Dye Leakage

[2] = Inhibition of Carrageenin-Induced Paw Edema; type: in vivo, male Donryu rats; details: rat, in vivo; rats, oral; ratio of LD50 to ED40; read-out: LD50/ED40, Carrageenin-Induced Paw Edema (safety margin)
Protocol: as §1, §2, §3

[3] = Inhibition of Granuloma Formation by Granuloma Pouch Method; type: in vivo, male Wistar rats; details: rat, in vivo; rats, oral; ratio of LD50 to ED20; read-out: LD50/ED20, Granuloma Pouch Method (safety margin)
Protocol: (§4) (c) Inhibition of Granuloma Formation by Gramuloma Pouch Method
(§5) Thereafter, the compounds were administered orally. Beginning the next day, the compounds were administered orally at 9:00 a.m. and 4:00 p.m. for 6 days. The day after final administration, the granuloma pouches were removed and weighed. Inhibitory percentage was calculated as follows: [formula] (d) Acute Toxicity

[4] = system: Granuloma Formation; assay: as above; type: in vivo, male Wistar rats; details: Rattus norvegicus, 144 h; for ED20: read-out: ED20, Inhibition of Granuloma Formation by Granuloma Pouch Method
Protocol: as §4, §5

[5] = in vivo; details: rats, oral, 7-day observation
Protocol: as §5
The compounds were administered orally in male Wistar rats weighing 200 ± 10 g. The rats were observed over a 7-day period.

[6] = Inhibition of Granuloma Formation by Cotton Pellet Method; type: in vivo, male Donryu rats; details: rat, in vivo; rats, oral; ratio of LD50 to ED20; read-out: LD50/ED20, Cotton Pellet Method (safety margin)
Protocol: (§6) (e) Inhibition of Granuloma Formation by Cotton Pellet Method
(§7) Following the method of C. […] Thereafter, the compounds were administered orally. Beginning the next day, the compounds were administered orally at 9:00 a.m. and 4:00 p.m. for 3 days. The day after final administration, the pellets were removed, dried and weighed to determine the weight of the granuloma formed around the pellets. Inhibitory percentage was calculated as follows: [formula] (f) Analgesic Activity by Acetylcholine-Induced Writhing Method in Mice

[7] = system: Granuloma Formation; assay: as above; type: in vivo, male Donryu rats; details: Rattus norvegicus, 72 h; rats, oral, twice daily for 3 days
Protocol: as §6, §7

[8] = Inhibition of Intraperitoneal Dye Leakage; type: in vivo, male Donryu rats; details: rat, in vivo; rats, oral; ratio of LD50 to ED30; read-out: LD50/ED30, Intraperitoneal Dye Leakage (safety margin)
Protocol: as §3
(§8) Five minutes thereafter, 0.2 ml. / 100 g. body weight of 3% acetic acid was injected intraperitoneally. The dye in the peritoneal exudation, sampled 45 minutes after the acetic acid injection, was subjected to the spectro-photometric estimation at 620 mμ. Inhibitory percentage was calculated as follows. [formula]

[9] = system: Intraperitoneal Dye Leakage; assay: Inhibition of Intraperitoneal Dye Leakage; type: in vivo, male Donryu rats; details: Rattus norvegicus, 0.75 h, rats, oral
Protocol: as §3, §8

[10] = system: Acetylcholine-Induced Writhing; assay: Analgesic Activity by Acetylcholine-Induced Writhing Method in Mice; type: in vivo, male SLC-ICR mice; details: Mus musculus, oral, 60 minutes before acetylcholine
Protocol: Following the method of C. A. Winter, et al. (J. Pharmac. Exp., Ther., 141, 369 (1963)), in male Donryu rats weighing 130 ± 10 g., two sterilized cotton pellets weighing 35 ± 1 mg. respectively were embedded subcutaneously at the lateral abdomen aseptically. Thereafter, the compounds were administered orally. Beginning the next day, the compounds were administered orally at 9:00 a.m. and 4:00 p.m. for 3 days. The day after final administration, the pellets were removed, dried and weighed to determine the weight of the granuloma formed around the pellets. Inhibitory percentage was calculated as follows: [formula] (f) Analgesic Activity by Acetylcholine-Induced Writhing Method in Mice
Following the method of S. S. Adams (Arch. Int. Pharmacodyn., 178, 115 (1969)), in male SLC-ICR mice weighing 20 ± 1 g., the writhing response was caused by the intraperitoneal injection of 0.1 ml. / 10 g. body weight of 7.5 mg. / kg. acetylcholine dissolved in physiological saline. The test compounds were administered orally 60 minutes before the acetylcholine injection, after which the frequency of response was counted in each animal for 8 minutes. Inhibitory percentage was calculated as follows. [formula] Note; Compound A: 2-[4-(2-methyl-3-oxobutyl)phenyl]propionic acid, […]

[11] = po, read-out: Inhibition of Granuloma Formation by Granuloma Pouch Method, Inhibition (%)

| SMILES | ED40 [1] [mg/kg] | inhibition at 2 mg/kg ([1]; 3 hours after carrageenin) [%] | ED20 ([4]; po) [mg/kg] | Acute Toxicity, Died/Treated ([5]; 125 mg/kg) | ED20 [7] [mg/kg] | ED30 [9] [mg/kg] | inhibition at 0.5 mg/kg ([9]; 45 minutes after acetic acid) [%] | ED50 [10] [mg/kg] | inhibition at 3 mg/kg ([1]; 3 hours after carrageenin) [%] | Acute Toxicity, Died/Treated ([5]; 250 mg/kg) | inhibition at 2 mg/kg ([9]; 45 minutes after acetic acid) [%] | further results |
| --- | --- | --- | --- | --- | --- | --- | --- | --- | --- | --- | --- | --- |
| CCC(Cc1ccc(C(C)C(=O)O)cc1)C(C)O (centres unmarked) [Compound D, 2-[4-(2-ethyl-3-hydroxybutyl)phenyl]propionic acid] | 2.5 | 38.1 | 0.73 | 3/8 | 0.33 | 0.31 | 34.4 | 2.7 | – | – | – | selectivity ratio [2]: 52.8; selectivity ratio [3]: 181; inhibition at 1 mg/kg [4, 11]: 23.5%; LD50 at 168 h ([5]; rat, in vivo, read-out: Acute Toxicity LD50): 132 mg/kg; selectivity ratio [6]: 400; selectivity ratio [8]: 426 |
| CC(=O)C(C)Cc1ccc(C(C)C(=O)O)cc1 (centres unmarked) [Compound A, 2-[4-(2-methyl-3-oxobutyl)phenyl]propionic acid] | – | – | – | – | – | – | – | – | 31.7 | 1/8 | 30.6 | inhibition at 8 mg/kg ([4]; rats, oral, 8 mg/kg, twice daily for 6 days): 22.3% |
| CC(C(=O)O)c1ccc(CC(C)C(C)O)cc1 (centres unmarked) [Compound B, 2-[4-(2-methyl-3-hydroxybutyl)phenyl]propionic acid] | – | – | – | – | – | – | – | – | 34.9 | 1/8 | 35.3 | inhibition at 6 mg/kg ([4]; rats, oral, 6 mg/kg, twice daily for 6 days): 24.2% |
| CC(C)Cc1ccc(C(C)C(=O)O)cc1 (centres unmarked) [Ibuprofen, reference compound] | 16 | – | 42 | – | 22 | 17 | – | 4.7 | – | – | – | inhibition at 10 mg/kg ([1]; 10 mg/kg, 3 hours after carrageenin): 31.2%; inhibition at 50 mg/kg [4, 11]: 21.1%; Acute Toxicity, Died/Treated ([5]; 625 mg/kg): 3/8; inhibition at 10 mg/kg ([9]; 10 mg/kg, 45 minutes after acetic acid): 17.8% |
| CCC(Cc1ccc(C(C)C(=O)O)cc1)C(C)=O (centres unmarked) [Compound C, 2-[4-(2-ethyl-3-oxobutyl)phenyl]propionic acid] | – | 35.2 | – | 2/8 | – | – | 28.2 | – | – | – | – | inhibition at 1 mg/kg ([4]; rats, oral, 1 mg/kg, twice daily for 6 days, read-out: Inhibition of Granuloma Formation by Granuloma Pouch Method, Inhibition (%)): 22.7% |
